Assay results: PubChem BioAssay AID1259407 (Chemical Carcinogenesis Research Information System (CCRIS), 2018)
Activity calls are given as the source filed them. No rule for the calls is given here.

Tested on: CCRIS mutagenicity, Ames/micronucleus/aberration tests
Experiment: CCRIS mutagenicity studies

Measured: mutagenic call

CC(C)[N+](C)(CCOC(=O)C1c2ccccc2Oc2ccccc21)C(C)C
inactive: End Point: IN VITRO CHROMOSOMAL ABERRATIONS, Test System: CHINESE HAMSTER OVARY CELLS, Metabolic Activation: NONE inactive; negative | End Point: IN VITRO CHROMOSOMAL ABERRATIONS, Test System: CHINESE HAMSTER OVARY CELLS, Metabolic Activation: RAT, LIVER, S-9, AROCLOR 1254 inactive; negative | Test System: AMES SALMONELLA TYPHIMURIUM, Strain/Indicator: TA97, Metabolic Activation: HAMSTER, LIVER, S-9, AROCLOR 1254 (10 OR 30%), Method: PREINCUBATION inactive; negative | Test System: AMES SALMONELLA TYPHIMURIUM, Strain/Indicator: TA97, Metabolic Activation: NONE, Method: PREINCUBATION inactive; negative | Test System: AMES SALMONELLA TYPHIMURIUM, Strain/Indicator: TA97, Metabolic Activation: RAT, LIVER, S-9, AROCLOR 1254 (10%), Method: PREINCUBATION inactive; negative | Test System: AMES SALMONELLA TYPHIMURIUM, Strain/Indicator: TA97, Metabolic Activation: RAT, LIVER, S-9, AROCLOR 1254 (30%), Method: PREINCUBATION inactive; negative | Test System: AMES SALMONELLA TYPHIMURIUM, Strain/Indicator: TA98, Metabolic Activation: HAMSTER, LIVER, S-9, AROCLOR 1254 (10%), Method: PREINCUBATION inactive; negative | Test System: AMES SALMONELLA TYPHIMURIUM, Strain/Indicator: TA98, Metabolic Activation: HAMSTER, LIVER, S-9, AROCLOR 1254 (30%), Method: PREINCUBATION inactive; negative | Test System: AMES SALMONELLA TYPHIMURIUM, Strain/Indicator: TA98, Metabolic Activation: NONE, Method: PREINCUBATION inactive; negative | Test System: AMES SALMONELLA TYPHIMURIUM, Strain/Indicator: TA98, Metabolic Activation: RAT, LIVER, S-9, AROCLOR 1254 (10%), Method: PREINCUBATION inactive; negative | Test System: AMES SALMONELLA TYPHIMURIUM, Strain/Indicator: TA98, Metabolic Activation: RAT, LIVER, S-9, AROCLOR 1254 (30%), Method: PREINCUBATION inactive; negative | Test System: AMES SALMONELLA TYPHIMURIUM, Strain/Indicator: TA100, Metabolic Activation: HAMSTER, LIVER, S-9, AROCLOR 1254 (10%), Method: PREINCUBATION inactive; negative | Test System: AMES SALMONELLA TYPHIMURIUM, Strain/Indicator: TA100, Metabolic Activation: HAMSTER, LIVER, S-9, AROCLOR 1254 (30%), Method: PREINCUBATION inactive; negative | Test System: AMES SALMONELLA TYPHIMURIUM, Strain/Indicator: TA100, Metabolic Activation: NONE, Method: PREINCUBATION inactive; negative | Test System: AMES SALMONELLA TYPHIMURIUM, Strain/Indicator: TA100, Metabolic Activation: RAT, LIVER, S-9, AROCLOR 1254 (10%), Method: PREINCUBATION inactive; negative | Test System: AMES SALMONELLA TYPHIMURIUM, Strain/Indicator: TA100, Metabolic Activation: RAT, LIVER, S-9, AROCLOR 1254 (30%), Method: PREINCUBATION inactive; negative | Test System: AMES SALMONELLA TYPHIMURIUM, Strain/Indicator: TA1535, Metabolic Activation: HAMSTER, LIVER, S-9, AROCLOR 1254 (10%), Method: PREINCUBATION inactive; negative | Test System: AMES SALMONELLA TYPHIMURIUM, Strain/Indicator: TA1535, Metabolic Activation: HAMSTER, LIVER, S-9, AROCLOR 1254 (30%), Method: PREINCUBATION inactive; negative | Test System: AMES SALMONELLA TYPHIMURIUM, Strain/Indicator: TA1535, Metabolic Activation: NONE, Method: PREINCUBATION inactive; negative | Test System: AMES SALMONELLA TYPHIMURIUM, Strain/Indicator: TA1535, Metabolic Activation: RAT, LIVER, S-9, AROCLOR 1254 (10%), Method: PREINCUBATION inactive; negative | Test System: AMES SALMONELLA TYPHIMURIUM, Strain/Indicator: TA1535, Metabolic Activation: RAT, LIVER, S-9, AROCLOR 1254 (30%), Method: PREINCUBATION inactive; negative | Test System: AMES SALMONELLA TYPHIMURIUM, Strain/Indicator: TA1537, Metabolic Activation: HAMSTER, LIVER, S-9, AROCLOR 1254 (10%), Method: PREINCUBATION inactive; negative | Test System: AMES SALMONELLA TYPHIMURIUM, Strain/Indicator: TA1537, Metabolic Activation: NONE, Method: PREINCUBATION inactive; negative | Test System: AMES SALMONELLA TYPHIMURIUM, Strain/Indicator: TA1537, Metabolic Activation: RAT, LIVER, S-9, AROCLOR 1254 (10%), Method: PREINCUBATION inactive; negative

CC[C@H]1OC(=O)[C@H](C)[C@@H](O[C@H]2C[C@@](C)(OC)[C@@H](O)[C@H](C)O2)[C@H](C)[C@@H](O[C@@H]2O[C@H](C)C[C@H](N(C)C)[C@H]2O)[C@](C)(O)C[C@@H](C)[C@@H]2N[C@@H](COCCOC)O[C@H]([C@H]2C)[C@]1(C)O
inactive: End Point: In vitro chromosomal aberrations, Test System: Chinese hamster lung (CHL) cells, Metabolic Activation: None inactive; negative | End Point: In vitro chromosomal aberrations, Test System: Chinese hamster lung (CHL) cells, Metabolic Activation: S-9 inactive; negative

COP(=O)(OC)O/C(=C\Cl)c1cc(Cl)c(Cl)cc1Cl
inactive: Test System: AMES SALMONELLA TYPHIMURIUM, Strain/Indicator: TA98, Metabolic Activation: NONE inactive; negative | Test System: AMES SALMONELLA TYPHIMURIUM, Strain/Indicator: TA98, Metabolic Activation: RAT, LIVER, S-9, AROCLOR 1254 inactive; negative | Test System: AMES SALMONELLA TYPHIMURIUM, Strain/Indicator: TA100, Metabolic Activation: NONE inactive; negative | Test System: AMES SALMONELLA TYPHIMURIUM, Strain/Indicator: TA100, Metabolic Activation: RAT, LIVER, S-9, AROCLOR 1254 inactive; negative | Test System: AMES SALMONELLA TYPHIMURIUM, Strain/Indicator: TA102, Metabolic Activation: NONE inactive; negative | Test System: AMES SALMONELLA TYPHIMURIUM, Strain/Indicator: TA102, Metabolic Activation: RAT, LIVER, S-9, AROCLOR 1254 inactive; negative | Test System: AMES SALMONELLA TYPHIMURIUM, Strain/Indicator: TA1535, Metabolic Activation: NONE inactive; negative | Test System: AMES SALMONELLA TYPHIMURIUM, Strain/Indicator: TA1535, Metabolic Activation: RAT, LIVER, S-9, AROCLOR 1254 inactive; negative | Test System: AMES SALMONELLA TYPHIMURIUM, Strain/Indicator: TA1537, Metabolic Activation: NONE inactive; negative | Test System: AMES SALMONELLA TYPHIMURIUM, Strain/Indicator: TA1537, Metabolic Activation: RAT, LIVER, S-9, AROCLOR 1254 inactive; negative
